Reference: patent publication US3933918A, “2-Allyloxy-4-chloro-acetophenone” (Kyowa Hakko Kogyo Co., Ltd., priority 1973, dated 1976)
Counter-ions that a name gives are not always drawn.

Experiments:
[1] = tested on: pulmonary stretch receptor; assay: Effect on the pulmonary stretch receptor impulses in guinea pigs; type: in vivo, guinea pig; details: for Change of voltage of stretch receptor impulses (as compared with that before treatment with drug): reduced to / Time required to return to the level before treatment with drug / Change of voltage of stretch receptor impulses (as compared with that before treatment with drug): guinea pig
Excerpt: b. Effect on the pulmonary stretch receptor impulses
Five guinea pigs weighing 400-600 g are used. The animals are anesthetized by subcutaneous injection of 1.2 g/kg of urethane and disposed in a supine position. The chest is opened under artificial ventilation. The left vagus nerve is sectioned at the cervical region and the peripheral stumps is placed on a bipolar platinum electrode. The impulses from the pulmonary stretch receptors are observed on an oscilloscope and recorded with a long-recording camera.
The animals are given graded doses of the hydrochloride of 2-allyloxy-4-chloro-β-piperidinopropiophenone by intravenous injection.
The action of the compound on a peripheral nerve is determined by the change of the voltage of the stretch receptor impulses.
As a control, the same test is conducted using benzonatate which is known as a peripherally acting antitussive.

[2] = tested on: coughs induced by mechanical stimulation on the mucosa of the tracheal bifurcation; assay: Comparison of equi-active antitussive doses for various routes of administration in anesthetized dogs; type: in vivo, dog; details: for Site of antitussive action: central nerve: conclusion in words; for Dose giving nearly the same antitussive effect: dog
Description: a. Comparison of equi-active doses for various routes of administration
Five dogs weighing 8-10 kg are used. Polyethylene tubes are previously installed in the animals in the femoral vein, the vertebral artery and the cerebello-medullary cistern. The animals are lightly anesthetized by intraperitoneal injection of 20 mg/kg of pentobarbital sodium. The hydrochloride of 2-allyloxy-4-chloro-β-piperidinopropiophenone is given through the polyethylene tubes. Coughs are induced by mechanical stimulation on the mucosa of the tracheal bifurcation. The doses necessary to obtain the same degree of antitussive effect as that obtained by the administration through the femoral vein are determined.

[3] = Acute toxicity in rats, determined as LD50; details: in vivo, po; rat, P.O., observed one week
Description: (§1) Acute Toxicity in Mice and in Rats -- Determined as LD50
c. More than 5 groups of male Wistar strain rats, each consisting of 15 animals weighing 110-150 g are used. The animals are given graded doses of the test compound and the standard compound orally and are observed for one week.
(§2) The LD50 is calculated according to the method of Litchfield and Wilcoxon [J. Pharmacol. & Exper. Therap. 96, 99 (1949)].

[4] = tested on: coughs induced by electrical stimulation of central stump of the superior laryngeal nerve; assay: Antitussive effect on coughs induced by electrical stimulation of central stump of the superior laryngeal nerve in anesthetized cats; type: in vivo; details: Felis catus, iv, cat, i.v., fiducial limits (P = 0.05), read-out: AtD50 (50% antitussive dose)
Description: More than 4 groups of cats, each consisting of 6 animals of either sex weighing 2-3 kg are used. The animals are lightly anesthetized by intraperitoneal injection of 20 mg/kg of pentobarbital sodium. The test is conducted according to the method of Domenjoz (Arch. Exp. Path. u. Pharmakol, 215, 19 (1952)].
The changes of inner pressure of the trachea brought about by coughs are recorded. The animals are given graded doses of the test compound or the standard compound by intravenous injection.
The antitussive effect of the compounds is determined by the changes in both the amplitude and frequency of the cough curves and the duration of the changes. When the amplitude and/or the frequency of the coughs induced by a stimulus of moderate intensity are decreased by more than 20% as compared with those before administration of the drug and when the decrease lasts for more than 20 minutes, the effect is determined to be significant. On the basis of the criteria of evaluation, the AtD50 is calculated according to the method of Lichfield and Wilcoxon.

[5] = tested on: coughs induced by mechanical stimulation of the tracheal mucosa; assay: Antitussive effect on coughs induced by mechanical stimulation of the tracheal mucosa in dogs ("Coughing dog" method); type: in vivo; details: for ED50: Canis lupus familiaris, iv, dog, mechanical stimulation, i.v., fiducial limits (P = 0.05), read-out: AtD50 (50% antitussive dose)
Description: a. Effect on coughs induced by mechanical stimulation of the tracheal mucosa in dogs
More than 4 groups of dogs, each consisting of 5 animals of either sex weighing 6-10 kg are used. The test is conducted according to "Coughing dog" method [Jap. J. Pharmacol. 2, 7-13 (1952); Pharm. Bull. (Japan) 2 298 (1954); and Jap. J. Pharmacol. 4 130 (1955)]. Coughs are induced by mechanical stimulation with a bristle stimulator made of pig bristles on the tracheal bifurcation through a chronically-built tracheal fistula.
Stimulation is applied by constantly and intensely moving the stimulator up and down 10 times for 20 seconds and the stimulation is repeated every 5 minutes. The changes of the inner pressure of the trachea brought about by coughs are recorded on a smoked paper. The animals are given graded doses of the test compound or the standard compound by intravenous injection.
The antitussive effect of the compounds is determined by the changes in both the amplitude and frequency of the cough curves on the smoked paper and the duration of such changes. When the amplitude and/or the frequency are decreased by more than 20% as compared with those before administration of the drug and when the decrease lasts for more than 20 minutes, the effect is determined to be significant. On the basis of the criteria of evaluation, the 50% antitussive dose (hereinafter referred to as AtD50) is calculated according to the method of Litchfield and Wilcoxon.

[6] = tested on: coughs induced by mechanical stimulation of the tracheal mucosa; assay: Antitussive effect on coughs induced by mechanical stimulation of the tracheal mucosa in anesthetized cats ("Coughing cat" method); type: in vivo; details: for ED50: Felis catus, iv, cat, mechanical stimulation, i.v., fiducial limits (P = 0.05), read-out: AtD50 (50% antitussive dose)
Description: b. Effect on coughs induced by mechanical stimulation of the tracheal mucosa in anesthetized cats
More than 4 groups of cats, each consisting of 6 animals of either sex weighing 2-3 kg are used. The animals are lightly anesthetized by intraperitoneal injection of 20 mg/kg of pentobarbital sodium. The test is conducted according to "Coughing cat" method [Folia Pharmacol japon. 55 99 (1959)].
Coughs are induced in the same manner as described above except that a bristle stimulator made of whiskers of rabbit is used. The AtD50 is calculated in the same manner as described above.

[7] = Acute toxicity in mice, determined as LD50; details: in vivo, mouse; for LD50 at 168 h: po, P.O., observed one week; for LD50 at 72 h: sc, S.C., observed 72 hours
Description: as §1
a. More than 5 groups of male ddy-strain mice, each consisting of 10 animals weighing 18-20 g are used. The animals are given graded doses of the test compound or the standard compound by subcutaneous injection and are observed for 72 hours.
b. More than 6 groups of male dd-strain mice, each consisting of 20 animals weighing 18-20 g are used. The animals are given graded doses of the test compound or the standard compound orally and are observed for one week.
as §2

**Q.** What does the source list for `C=CCOc1cc(Cl)ccc1C(=O)CCN1CCCCC1` [2-allyloxy-4-chloro-β-piperidinopropiophenone]?
**A.** Site of antitussive action: peripheral nerves ([1]; conclusion in words): exerts a considerable action on peripheral nerves; Site of antitussive action: central nerve [2]: acts centrally

**Q.** With `CCCCNc1ccc(C(=O)OCCOCCOCCOCCOCCOCCOCCOCCOCCOC)cc1` [Benzonatate] as the compound, how does the “Change of voltage of stretch receptor impulses (as compared with that before treatment with drug): reduced to” value (shortened to “Change of voltage … reduced to”) ([1]; 1.0 mg/kg) read?
**A.** 3/4

**Q.** And the “Time required to return to the level before treatment with drug” value (from here on “Time required to return”) ([1]; 1.0 mg/kg)?
**A.** 10 min

**Q.** And the “Change of voltage … reduced to” value ([1]; 2.0 mg/kg)?
**A.** 1/2

**Q.** And the “Time required to return” value ([1]; 2.0 mg/kg)?
**A.** 30 min

**Q.** What about the “Change of voltage … reduced to” value ([1]; 4.0 mg/kg) of the same compound?
**A.** zero

**Q.** What about the “Time required to return” value ([1]; 4.0 mg/kg) of the same compound?
**A.** 30 to 40 min

**Q.** What about the “Change of voltage of stretch receptor impulses (as compared with that before treatment with drug)” value ([1]; 0.1-0.5 mg/kg) of the same compound?
**A.** none

**Q.** Which “Time required to return” value ([1]; i.v., 5.0 mg/kg) does the source give for `C=CCOc1cc(Cl)ccc1C(=O)CCN1CCCCC1` [2-Allyloxy-4-Chloro-β-Piperidinopropiophenone Hydrochloride] here?
**A.** 10 to 20 min

**Q.** What about the “Change of voltage … reduced to” value ([1]; i.v., 10.0 mg/kg) of the same compound?
**A.** 1/2

**Q.** What about the “Time required to return” value ([1]; i.v., 10.0 mg/kg) of the same compound?
**A.** ~30 min

**Q.** What about the “Change of voltage of stretch receptor impulses (as compared with that before treatment with drug)” value ([1]; i.v., 1.0-2.0 mg/kg) of the same compound?
**A.** none

**Q.** And the “Effect on the impulses of the pulmonary stretch receptor” value ([1]; statement in words)?
**A.** repress the impulses of the pulmonary stretch receptor

**Q.** And the LD50 at 168 h [3]?
**A.** 1020 mg/kg

**Q.** And the ED50 [4]?
**A.** 4.2 mg/kg

**Q.** And the ED50 [5]?
**A.** 3.3 mg/kg

**Q.** And the “Antitussive effect compared with codeine phosphate” value ([5]; dogs, statement in words)?
**A.** antitussive effect equal to codeine phosphate

**Q.** What about the ED50 [6] of the same compound?
**A.** 4.8 mg/kg

**Q.** What about the “Antitussive effect compared with codeine phosphate” value ([6]; cats, statement in words) of the same compound?
**A.** antitussive effect equal to codeine phosphate

**Q.** And the LD50 at 168 h [7]?
**A.** 240 mg/kg

**Q.** What about the LD50 at 72 h [7] of the same compound?
**A.** 105 mg/kg

**Q.** What about the “Site of antitussive action: central nerve” value ([2]; Hydrochloride) of the same compound?
**A.** exerts its action on the central nerve

**Q.** What about the “Dose giving nearly the same antitussive effect” value ([2]; cerebello-medullary cistern) of the same compound?
**A.** 0.06 to 0.1 mg/kg

**Q.** And the “Dose giving nearly the same antitussive effect” value ([2]; femoral vein)?
**A.** 4.30 mg/kg

**Q.** And the “Dose giving nearly the same antitussive effect” value ([2]; vertebral artery)?
**A.** 0.4 to 0.8 mg/kg

**Q.** And the “Ratio of effective doses for the three routes compared with codeine” value ([2]; statement in words)?
**A.** almost the same as that obtained by using codeine

**Q.** With `COc1ccc2c3c1O[C@H]1[C@@H](O)C=C[C@H]4[C@@H](C2)N(C)CC[C@@]341` [Codeine phosphate, reference compound] as the compound, how does the LD50 at 168 h [3] read?
**A.** 807 mg/kg

**Q.** And the ED50 [4]?
**A.** 2.1 mg/kg

**Q.** What about the ED50 [5] of the same compound?
**A.** 2.5 mg/kg

**Q.** And the ED50 [6]?
**A.** 2.3 mg/kg

**Q.** What about the LD50 at 168 h [7] of the same compound?
**A.** 729 mg/kg

**Q.** What about the LD50 at 72 h [7] of the same compound?
**A.** 191 mg/kg
